Patent US20210180023A1, “CARDIAC REPAIR BY REPROGRAMMING OF ADULT CARDIAC FIBROBLASTS INTO CARDIOMYOCYTES” (The Board of Regents of the University of Texas System, priority 2017, published 2021)

Legend:
[1] = system: αMHC promoter (αMHC-Luciferase); experiment: αMHC-luciferase reporter assay in HEK293 cells; type: cell-based
Text: To determine if ZNF281 could directly activate cardiac genes, the inventors examined the ability of ZNF281 to activate a luciferase reporter controlled by the αMHC promoter (αMHC-Luciferase).

[2] = system: αMHC-GFP adult cardiac fibroblasts (CF); experiment: Flow cytometry (FACS) of αMHC-GFP+ and cTnT+ adult cardiac fibroblasts after reprogramming; type: cell-based, mouse; details: ZNF281 added to 5F, adult CFs, 7 days
Procedure: Flow Cytometry. For flow Cytometry, cells were trypsinized and fixed with fixation buffer (BD Bioscience) for 15 min on ice. Fixed cells were washed with Perm/Wash buffer (BD Bioscience) for three times. Washed cells were incubated with mouse monoclonal anti-cardiac Troponin T (cTnT) antibody (Thermo Scientific) at 1:200 dilution and Rabbit anti-GFP antibody (Thermo Scientific) at 1:200 dilution in Perm/Wash buffer for 1 hr on ice. Cells then were washed with Perm/Wash buffer for three times followed by incubation with donkey anti-mouse Alexa fluor 647 (Invitrogen) at 1:200 and goat anti-rabbit Alexa fluor 488 at 1:200 (Invitrogen). Cells were washed with Perm/Wash buffer, and then analyzed using FACS Caliber (BD Sciences) and FlowJo software.
(§1) ZNF281 enhances cardiac reprogramming of adult fibroblasts. PHF7 and ZNF281 were the two strongest activators identified from retroviral cDNA expression screen with 5F (FIG. 1D; Table S2). PHF7 is only expressed in the male germ line (Yang et al., 2012), whereas ZNF281 has a broad expression pattern with enriched expression in the heart (FIG. 51). The inventors therefore focused their initial attention on ZNF281 and explored its ability to enhance the activity of 5F. They refer to the reprogramming mix of 5F plus ZNF281 as 6F. The inventors validated the results of their screen by assessing GFP and cTnT expression in αMHC-GFP TTFs following 5F and 6F reprogramming after 7 days (FIG. 3A). […] This TTF reprogramming efficiency using 6F is noteworthy when considering the relatively low statistical likelihood of each fibroblast taking up all five or six separate retroviruses encoding the reprogramming factors. The inventors also examined the expression of cardiac and fibroblast transcripts by q-PCR. […] The addition of ZNF281 to 5F increased the expression of GFP and cTnT in αMHC-GFP CFs evaluated by immunocytochemistry after 7 days of reprogramming (FIG. 10A). […]

[3] = system: adult cardiac fibroblasts (CF); experiment: Beating cells after 4 weeks of reprogramming; type: cell-based, mouse; details: ZNF281 in presence of 5F
Text: as §1

Myc-tagged GATA4 = biological target: T1, Myc-tagged GATA4 (Homo sapiens, UniProt P43694); experiment: Co-immunoprecipitation in transfected HEK293 cells; type: binding
T1 construct: expressed in transfected cells; host or cells: HEK293
Procedure: (§2) Immunoprecipitation and Western Blot Analysis. Flag-epitope tag ZNF281 fusion protein were co-expressed with myc-epitope tag fusion GATA4, HAND2, MEF2C or TBX5 in HEK293 cells for 48 hours. Cell lysates were incubated overnight with 1 μg of mouse monoclonal anti-FLAG antibody (Sigma). The cell lysates were pulldown using magnetic Protein G Dynabeads (Invitrogen) and then the Flag-ZNF281 was eluted using 0.5 mg/ml of free Flag peptide (Sigma). The final elution and the input obtained before the immunoprecipitation was analyzed by SDS-PAGE western blot using a mouse monoclonal anti-Myc antibody (Novex) or mouse monoclonal anti-FLAG antibody (Sigma).
(§3) ZNF281 is a GATA4 coactivator. Previous reports described the influence of ZNF281 on pluripotency, stemness and epithelial-mesenchymal transition (EMT) (Hahn and Hermeking, 2014). However, the potential involvement of ZNF281 in cardiac development has not been previously explored. To begin to define the molecular mechanism whereby ZNF281 enhances cardiac reprogramming, the inventors performed co-immunoprecipitation assays with ZNF281 and each reprogramming transcription factor in transfected HEK293 cells.

[4] = system: Myc-tagged HAND2, MEF2c, or TBX5; experiment: Co-immunoprecipitation in transfected HEK293 cells; type: binding
Procedure: as §2, §3

adult TTFs = experiment: q-PCR of marker transcripts in retrovirally reprogrammed adult TTFs; type: cell-based, mouse; details: ZNF281 added to 5F, versus 5F
Procedure: Retroviruses production, cellular reprogramming and treatment. For retroviruses production, Platinum E cells were seeded into culture dishes (1×10^5 cells/cm2) one day before transfection in DMEM supplemented with 10% FBS and 1% penicillin/streptomycin. Cells reached ˜80% confluency on the day of transfection. DNA plasmids were transfected into Platinum E cells using FuGENE 6 transfection reagent. Twenty-four hours after transfection, wild type or αMHC-GFP tail-tip fibroblasts were seeded into culture dishes or plates that were precoated with SureCoat (Cellutron) for one hour at a density of 6×10^4/cm^2. Forty-eight hours after transfection, polybrene was added to viral medium that was filtered through a 0.45-μm filter at a concentration of […]. The mixture replaced the growth medium in the cell culture plate with tail-tip fibroblasts. The viral infection was serially repeated twice. Twenty-four hours after the second infection, the viral medium was replaced with induction medium, composed of DMEM/199 (4:1), 10% conditioned medium obtained from neonatal rat cardiomyocyte culture, 10% FBS, 5% horse serum, 1% penicillin/streptomycin, 1% nonessential amino acids, 1% essential amino acids, 1% B-27, 1% insulin-selenium-transferrin, 1% vitamin mixture, and 1% sodium pyruvate (Invitrogen). Small molecule treatments were used throughout the reprogramming process […] (Sigma).
Quantitative mRNA measurement. Total RNA was extracted using TRIzol (Invitrogen) according vender's protocol. RNAs were retrotranscribed to cDNA using iScript Supermix (Bio-Rad). qPCR was performed using Kapa Sybr Fast (Kapa Biosystems). mRNA levels were normalized by comparison to Gapdh mRNA.
ZNF281 enhances cardiac reprogramming of adult fibroblasts. PHF7 and ZNF281 were the two strongest activators identified from retroviral cDNA expression screen with 5F (FIG. 1D; Table S2). PHF7 is only expressed in the male germ line (Yang et al., 2012), whereas ZNF281 has a broad expression pattern with enriched expression in the heart (FIG. 51). The inventors therefore focused their initial attention on ZNF281 and explored its ability to enhance the activity of 5F. They refer to the reprogramming mix of 5F plus ZNF281 as 6F. […] The addition of ZNF281 to 5F increased the expression of GFP and cTnT in αMHC-GFP CFs evaluated by immunocytochemistry after 7 days of reprogramming (FIG. 10A). […]
Co-repression of inflammatory genes by ZNF281 and NuRD complex components. […] Addition of NuRD complex subunits also promoted cardiac reprogramming, as measured by flow cytometry using the cardiac markers αMHC-GFP and cTnT (FIG. 5B, FIGS. S2A-B).

T1 sequence (P43694 whole entry): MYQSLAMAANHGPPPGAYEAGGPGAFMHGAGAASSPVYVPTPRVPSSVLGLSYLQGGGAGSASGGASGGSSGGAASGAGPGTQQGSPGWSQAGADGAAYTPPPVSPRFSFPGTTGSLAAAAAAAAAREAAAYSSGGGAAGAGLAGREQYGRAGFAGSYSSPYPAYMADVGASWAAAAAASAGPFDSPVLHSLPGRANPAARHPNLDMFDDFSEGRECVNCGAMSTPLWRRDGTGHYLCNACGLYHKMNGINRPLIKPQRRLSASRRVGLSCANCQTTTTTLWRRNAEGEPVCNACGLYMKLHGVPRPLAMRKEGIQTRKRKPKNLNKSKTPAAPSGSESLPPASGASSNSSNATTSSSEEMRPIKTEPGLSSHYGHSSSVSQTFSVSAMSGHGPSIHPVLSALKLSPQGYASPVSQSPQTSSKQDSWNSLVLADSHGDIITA

Substance: Zinc finger protein 281 [ZNF281]
- activation of αMHC-Luciferase reporter ([1]; ZNF281 alone): ~7 fold
- activation of αMHC-Luciferase reporter ([1]; ZNF281 co-expressed with GATA4): ~15 fold
- cTnT+ iCMs [2]: ~45%
- αMHC-GFP+ iCMs [2]: ~25%
- αMHC-GFP+/cTnT+ iCMs [2]: ~21%
- increase in the number of beating cells [3]: 2 fold
- co-immunoprecipitation of FLAG-tagged ZNF281 (Myc-tagged GATA4): co-immunoprecipitated
- co-immunoprecipitation of FLAG-tagged ZNF281 [4]: not with the other three factors
- decrease of Col1a2 expression (adult TTFs): ~30%
- decrease of Sox9 expression (adult TTFs): ~60%
- increase of Actc1 expression (adult TTFs): ~20 fold
- increase of Myh6 expression (adult TTFs): ~120 fold
